Source: patent US20170136021A1, “METHODS AND COMPOSITIONS FOR TREATING ENVELOPED VIRUSES” (priority 2014, published 2017)

What was measured:
[1] = tested on: Ebola virus; assay: microbe, parasite or virus in culture; format: cell-based; settings: for EC50: Zaire ebolavirus, Vero, read-out: EC50 of Ebola infection
[2] = tested on: Ebola virus; format: cell-based
[3] = tested on: rVSV-EBOV-GP; assay: organism not typed; format: cell-based, vesicular stomatitis virus expressing EBOV glycoprotein
[4] = tested on: Ebola virus; set-up: species or system mice; settings: mouse, in vivo

SMILES	overall infection with Ebola virus [1]	EC50 [1] [µM]	Ebola replication in cells [2]	percentage of Ebola positive cells versus concentration (inhibition of Ebola) [2]	Ebola entry [3]	mortality of Ebola infected mice [4]	percentage survival ([4]; 30 mg/kg) [%]	IC50 ([3]; Vero, 20 h, read-out: IC50 of viral entry inhibition) [µM]
C#Cc1cccc(Nc2ncnc3cc(OCCOC)c(OCCOC)cc23)c1 [erlotinib]	dose-dependent reduction	4.22	reduces	inhibition of Ebola by erlotinib in a dose-dependent manner	reduced Ebola entry in a dose-dependent manner	reduces	100	
CCN(CC)CCNC(=O)c1c(C)[nH]c(/C=C2\C(=O)Nc3ccc(F)cc32)c1C [sunitinib]		2.25						6.15
